{
  "source": "patent US20200216812A1",
  "about": "“IN VIVO METHOD FOR DIFFERENTIATING HUMAN PLURIPOTENT STEM CELLS INTO ATRIAL CARDIOMYOCYTES” (Ncardia B.V., priority 2016, published 2020)",
  "type_in_all_cases": "cell-based, human",
  "key": {"[1]": {"system": "COUP-TFI", "assay": "Qualitative immunoreactivity signal for COUP-TFI in hiPSC-derived cardiomyocytes (co-staining with alpha actinin)", "parameters": "key: +++: Strongest immunoreactivity signal (i.e. fluorescence staining); ++: Moderate immunoreactivity signal (i.e. fluorescence staining); +: Lowest immunoreactivity signal (i.e. fluorescence staining); +/−: Marginal immunoreactivity signal (i.e. fluorescence staining) (i.e. very low signal, not consistently observed in all cells).; −: No immunoreactivity signal (i.e. fluorescence staining)", "description": "(§1) The purpose of this experiment was to determine the influence of retinoic acid (RA) (i.e. all-trans retinoic acid was used in the experiments below) on differentiation of hiPSC into atrial cardiomyocytes. Specifically, the influence of all-trans retinoic acid concentration (1 microM vs 10 microM) as well as the effect of timing/duration of retinoic acid application (i.e. d2-4 vs d3-d4 vs d2-18) were tested according to the following experimental scheme:\n(§2) The aqueous media consisted of the following composition: 46.5% IMDM (Gibco 21056), 0.25% Bovostar BSA, 46.5% Ham's F12 with Glutamax, 2 mM Glutamax, 450 nM alphaMTG, 0.05 mg/ml ascorbic acid, 0.5% 5000 U/ml Pen/Strep (Gibco 12070), 0.01% 1000* Trace elements mix B (Cellgro 99-176-CL), 0.1% 1000* Trace elements mix C (Cellgro 99-176-CL). The aqueous media was used in all four treatment groups, except that RA was added at different concentrations depending on the given treatment group, i.e. 10 microM for treatment group 1 and 2 and 1 microM for treatment groups 3 and 4.\n(§3) For all treatment groups, CHIR-99021 was used at a concentration of 5 microM.\n(§4) For all experimental groups, a combination of 5 microM of XAV-939 and 0.25 microM of IWP-L6 was used. Plating of hiPSC hiPSC were seeded in 12-well plates at density of 60.000 cells per well or a split ratio that was empirically determined to give 30-80% confluence after 4 days. Culture media was replaced after 4 days, in each treatment group, with a differentiation media as described in Table 1.\n(§5) Step a): The hiPSC were contacted with 5 microM of CHIR-99021 for a period of 48 hours. At the term of step a), the media was refreshed, i.e. replaced by a media devoid of CHIR-99021 and comprising 5 microM of XAV-939 and 0.25 microM of IWP-L6.\n(§6) Step b): Immediately after having refreshed the medium of step a), i.e. immediately after the 48 hours of step a) (which correspond to 2 days after having initiated step a), the cells were contacted with 5 microM of XAV-939 and 0.25 microM of IWP-L6 as well as with 10 microM of all trans retinoic acid. The cells were cultured in this media for 48 hours. At the term of step b), the media was refreshed with a media but devoid of CHIR-99021, XAV-939, and IWP-L6. The hiPSC-derived cardiomyocytes were further cultured until 14 days after initiating step a), after which they were harvested and submitted to immunohistochemical procedure for assessment of atrial phenotype (see example 3 below).\n(§7) Step b): Immediately after having refreshed the medium of step a), i.e. immediately after the 48 hours of step a), the cells were contacted with 5 microM of XAV-939 and 0.25 microM of IWP-L6. At 24 hours after initiating step b) (which corresponds to 3 days after having initiated step a), 10 microM of retinoic acid was added to the media of step b). […]"}, "[2]": {"system": "hiPSC", "assay": "Differentiation of hiPSC into cardiomyocytes having an atrial phenotype (phenotype analysis, text summary)", "settings": "for differentiation of hiPSC into atrial cardiomyocytes (immunoreactive signal for COUP-TF1 and/or COUP-TF1): 1 microM; for differentiation of hiPSC into cardiomyocytes having an atrial phenotype (immunoreactive signal for COUP-TF1 and/or COUP-TF1): 10 microM", "description": "as §1, §5, §6\nas §6, with “step” for “step a) (which correspond to 2 days after having initiated step”, “of IWP-L6. At 24 hours after initiating step b) (which corresponds to 3 days after having initiated step a),” for “of IWP-L6 as well as with”, “of” for “of all trans”, “retinoic acid was added to the media of step b).” for “retinoic acid.”, “for 24” for “for 48”\nas §7, with “1” for “10”, “b). The cells were cultured in this media for 24 hours. At the term of step b), the media was refreshed with a media but devoid of CHIR-99021, XAV-939, and IWP-L6.” for “b).”"}, "[3]": {"system": "COUP-TFII", "assay": "Qualitative immunoreactivity signal for COUP-TFII in hiPSC-derived cardiomyocytes (co-staining with alpha actinin)", "parameters": "key: +++: Strongest immunoreactivity signal (i.e. fluorescence staining); ++: Moderate immunoreactivity signal (i.e. fluorescence staining); +: Lowest immunoreactivity signal (i.e. fluorescence staining); +/−: Marginal immunoreactivity signal (i.e. fluorescence staining) (i.e. very low signal, not consistently observed in all cells).; −: No immunoreactivity signal (i.e. fluorescence staining)", "description": "as §1, §2, §3, §4, §5, §6, §7"}, "[4]": {"settings": "treatment group 1: 10 microM RA/d 2-4"}, "[5]": {"settings": "treatment group 2: 10 microM RA/d 3-4"}, "[6]": {"settings": "treatment group 3: 1 microM RA/d 3-4"}, "[7]": {"settings": "treatment group 4: 1 microM RA/d 2-14 + 4"}},
  "data": [
    {"smiles": "CC1=C(/C=C/C(C)=C/C=C/C(C)=C/C(=O)O)C(C)(C)CCC1", "note": "[RA, all-trans retinoic acid]", "values": [
      {"measurement": "intensity of the immunoreactivity signal for COUP-TFI", "setting": "[1]; [4]", "result": "++"},
      {"measurement": "intensity of the immunoreactivity signal for COUP-TFI", "setting": "[1]; [5]", "result": "+"},
      {"measurement": "intensity of the immunoreactivity signal for COUP-TFI", "setting": "[1]; [6]", "result": "−"},
      {"measurement": "intensity of the immunoreactivity signal for COUP-TFI", "setting": "[1]; [7]", "result": "+/−"},
      {"measurement": "differentiation of hiPSC into atrial cardiomyocytes (immunoreactive signal for COUP-TF1 and/or COUP-TF1)", "setting": "[2]; added 2 days (48 hours) after initiating step a, duration 12 days (group 4)", "result": "low immunoreactive signal"},
      {"measurement": "differentiation of hiPSC into atrial cardiomyocytes (immunoreactive signal for COUP-TF1 and/or COUP-TF1)", "setting": "[2]; added 3 days (72 hours) after initiating step a, duration 24 hours (group 3)", "result": "marginal or no immunoreactive signal"},
      {"measurement": "differentiation of hiPSC into cardiomyocytes having an atrial phenotype (immunoreactive signal for COUP-TF1 and/or COUP-TF1)", "setting": "[2]; added 2 days (48 hours) after initiating step a, duration 48 hours (group 1)", "result": "strongest immunoreactive signal"},
      {"measurement": "differentiation of hiPSC into cardiomyocytes having an atrial phenotype (immunoreactive signal for COUP-TF1 and/or COUP-TF1)", "setting": "[2]; added 3 days (72 hours) after initiating step a, duration 24 hours (group 2)", "result": "moderate immunoreactive signal"},
      {"measurement": "intensity of the immunoreactivity signal for COUP-TFII", "setting": "[3]; [4]", "result": "+++"},
      {"measurement": "intensity of the immunoreactivity signal for COUP-TFII", "setting": "[3]; [5]", "result": "++"},
      {"measurement": "intensity of the immunoreactivity signal for COUP-TFII", "setting": "[3]; [6]", "result": "−"},
      {"measurement": "intensity of the immunoreactivity signal for COUP-TFII", "setting": "[3]; [7]", "result": "+"}
    ]}
  ]
}
